From patent publication US8445509B2, “Fused heterocyclic derivatives and use thereof” (Takeda Pharmaceutical Company Limited, priority 2008, dated 2013)

Tests used:
[1] = target: T1, FLT3 intracellular domain protein (Homo sapiens, UniProt P36888); assay: Fms Like Tyrosine Kinase 3 (FLT3) kinase inhibitory activity (AlphaScreen); format: biochemical
T1 construct: 7.5 ng/ml of FLT3 intracellular domain protein (Millipore); purchased Millipore
T1 sequence (P36888 564-993 limits assumed): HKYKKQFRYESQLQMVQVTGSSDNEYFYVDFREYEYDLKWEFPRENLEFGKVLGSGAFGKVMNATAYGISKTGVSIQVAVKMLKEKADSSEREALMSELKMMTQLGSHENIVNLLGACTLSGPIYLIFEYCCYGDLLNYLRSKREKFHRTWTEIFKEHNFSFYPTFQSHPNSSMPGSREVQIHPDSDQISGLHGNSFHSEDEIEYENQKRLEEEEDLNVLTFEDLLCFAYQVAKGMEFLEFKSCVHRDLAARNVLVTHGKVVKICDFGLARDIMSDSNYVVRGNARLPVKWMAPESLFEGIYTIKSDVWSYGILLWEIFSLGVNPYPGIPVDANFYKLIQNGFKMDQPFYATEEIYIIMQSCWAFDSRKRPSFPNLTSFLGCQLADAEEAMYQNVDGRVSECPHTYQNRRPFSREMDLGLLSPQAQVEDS
Procedure: A test compound dissolved in dimethyl sulfoxide (DMSO) was diluted with a buffer (50 mM Tris-HCl (pH 7.5), 5 mM MgCl2, 5 mM MnCl2, 2 mM dithiothreitol, 0.01% Tween-20). To this compound solution (5 μL) was added a buffer (10 μL) containing 7.5 ng/ml of FLT3 intracellular domain protein (Millipore) and 250 ng/mL of biotin labeled polypeptide biotinyl-poly-Glu:Tyr (4:1) (CIS bio International). At 5 min after mixing kinase enzyme and the compound and biotin labeled polypeptide, to the obtained mixture was added a buffer (10 μL) containing ATP (5 μM), the mixture was allowed to react at 25° C. for 10 min and the reaction was quenched with 25 μL of a stop solution (100 mM EDTA disodium salt, 62.5 mM HEPES buffer (pH 7.4), 250 mM NaCl, 0.1% bovine serum albumin, 10 μg/mL AlphaScreen assay streptavidin donor beads (Streptavidin Donor Beads: PerkinElmer), 10 μg/mL AlphaScreen assay anti-phosphotyrosine recognition antibody Y-100 binding acceptor beads (Anti-phosphotyrosine (P-Tyr-100) Acceptor beads: PerkinElmer)). The reaction solution was allowed to stand at 25° C. for 16 hrs, and the wells were counted using a plate reader (Envision™ (PerkinElmer)). The kinase inhibitory rate (%) of the test compound was calculated by the following formula: Inhibitory rate (%)=(1−(count of test compound−blank)÷(control−blank))×100
(§1) The count of the solution reacted without addition of the compound was used as a “control”, and the count of the solution without the compound and ATP was used as a “blank”.

[2] = target: T2, Tie2 intracellular domain protein (Homo sapiens, UniProt Q02763); assay: TIE2 kinase inhibitory activity (AlphaScreen); format: biochemical
T2 construct: 50 ng/mL of Tie2 intracellular domain protein (Millipore); purchased Millipore
Procedure: A test compound dissolved in dimethyl sulfoxide (DMSO) was diluted with a buffer (50 mM Tris-HCl (pH 7.5), 5 mM MgCl2, 5 mM MnCl2, 2 mM dithiothreitol, 0.01% Tween-20). A buffer (10 μL) containing 50 ng/mL of Tie2 intracellular domain protein (Millipore) and 250 ng/ml, of biotin labeled polypeptide biotinyl-poly-Glu:Tyr (4:1) (CIS bio International) was added to the compound solution (5 μL). At 5 min from the mixing of the kinase enzyme, the compound and the biotin labeled polypeptide, a buffer (10 μL) containing 5 μM ATP was added, and the mixture was reacted at 25° C. for 10 min. The reaction was quenched by the addition of 25 μL of a stop solution (100 mM EDTA disodium salt, 62.5 mM HEPES buffer (pH 7.4), 250 mM NaCl, 0.1% bovine serum albumin, 10 μg/ml AlphaScreen assay streptavidin donor beads (Streptavidin Donor beads: PerkinElmer), 10 μg/ml, AlphaScreen assay anti-phosphotyrosine recognition antibody PT-66 binding acceptor beads (Anti-phosphotyrosine (PT-66) Acceptor beads: PerkinElmer)). The reaction solution was allowed to stand at 25° C. for 16 hrs, and the […] were counted using a plate reader (Fusion™ (PerkinElmer)). The kinase inhibitory rate (%) of the test compound was calculated by the following formula: Inhibitory rate (%)=(1−(count of test compound−blank)÷(control−blank))×100
as §1

[3] = target: T3, c-Met intracellular domain protein (Homo sapiens, UniProt P08581); assay: Hepatocyte growth factor receptor (c-Met) kinase inhibitory activity (AlphaScreen); format: biochemical
T3 construct: 2.5 ng/ml of c-Met intracellular domain protein (Millipore); purchased Millipore
Procedure: (§2) A test compound dissolved in dimethyl sulfoxide (DMSO) was diluted with a buffer (50 mM Tris-HCl (pH 7.5), 5 mM MgCl2, 5 mM MnCl2, 2 mM dithiothreitol, 0.01% Tween-20). To this compound solution (5 μL) was added a buffer (10 μL) containing 2.5 ng/ml of c-Met intracellular domain protein (Millipore) and 250 ng/mL of biotin labeled polypeptide biotinyl-poly-Glu:Tyr (4:1) (CIS bio International). […] The reaction solution was allowed to stand at 25° C. for 16 hrs, and the wells were counted using a plate reader (Fusion™ (PerkinElmer)). The kinase inhibitory rate (%) of the test compound was calculated by the following formula: Inhibitory rate (%)=(1−(count of test compound−blank)÷(control−blank))×100
as §1

[4] = tested on: Human gastric cancer cell line MKN-45; assay: Human gastric cancer cell line MKN-45 growth inhibitory test; format: cell-based; details: MKN-45, 72 h, culture for 3 days
Procedure: Human gastric cancer cell line MKN-45 (RIKEN BioResource Center) was cultured in RPMI1640 (Invitrogen) containing 10% bovine fetal serum in a gas incubator at 37° C., 5% CO2. MKN-45 cells were treated with trypsin/EDTA and recovered. The cells were suspended in RPMI1640 containing 0.3% bovine fetal serum, plated on a 96 well flat bottom plate at a cells density of 3000 cells/50 μL per well. After culturing overnight, various concentrations of test substance were dissolved in RPMI1640 containing 0.3% bovine fetal serum and added to each well by 50 μL. After culture for 3 days, a Cell counting kit-8 reagent (DOJINDO LABORATORIES) was added to each well by 10 μL, and reacted in an incubator at 37° C., 5% CO2 for 2-3 hr. After the reaction, the absorbance of each well at 450 nm was measured by a microtiter plate reader. The concentration of a test substance necessary for inhibiting the growth by 50% (IC50 value) was calculated using a cell proliferation rate with addition of the test substance at each concentration and according to the nonlinear regression analysis using GraphPad Prism [Sigmoidal dose response (variable slope)]. The cell proliferation rate (%) with addition of a test substance at each concentration was calculated by the following formula. As a positive control (100% growth), dimethyl sulfoxide was added instead of a test substance. As a negative control (0% growth), the compound of Reference Example 136 (WO2005/030140, Entry 104), which is a known c-Met inhibitor, was added in large excess (10 μM) instead of a test substance.

[5] = tested on: Human umbilical vein-derived vascular endothelial cells (HUVEC); assay: Vascular endothelial cell proliferation inhibitory test (VEGF-stimulated HUVEC); format: cell-based; details: 120 h, 5 days of culture with VEGF
Procedure: Human umbilical vein-derived vascular endothelial cells (HUVEC purchased from KURABO […] LTD.) were cultured in an incubator at 37° C., 5% carbon dioxide in a vascular endothelial cell medium (Invitrogen) containing 3% bovine fetal serum and 2.5 ng/mL basic fibroblast growth factor. To be specific, HUVEC was suspended in a vascular endothelial cell medium containing the aforementioned 3% bovine fetal serum and plated on a 96 well flat bottom plate by 50 μL (3000 cells) each well. After culture overnight, various concentrations of the test substance and 120 ng/mL of vascular endothelial growth factor (VEGF) were dissolved in a vascular endothelial cell medium containing 3% bovine fetal serum and added to each well by 50 μL. After 5 days of culture, a Cell counting kit-8 reagent (DOJINDO LABORATORIES) was added to each well by 10 μL, and the mixture was reacted in an incubator at 37° C., 5% carbon dioxide for 2-3 hr. The absorbance at 450 nm was measured by a microtiter plate reader and the cell proliferation inhibitory activity was determined. Using the absorbance with addition of a test substance at each concentration and based on the nonlinear least-squares analysis using a logistic curve of SAS system NLIN procedure, the concentration of the test substance (IC50 value) necessary for showing 50% of the value obtained without addition of the test substance was calculated.

[6] = tested on: Human blood cell cancer cell line MV-4-11; assay: Human blood cell cancer cell line MV-4-11 growth inhibitory test; format: cell-based; details: MV4-11, 72 h, culture for 3 days
Procedure: Human blood cell cancer cell line MV-4-11 (ATCC) was cultured in IMDM (Invitrogen) containing 10% bovine fetal serum in an incubator at 37° C., 5% CO2. MV-4-11 cells were treated with trypsin/EDTA and recovered. The cells were suspended in IMDM containing 10% bovine fetal serum, plated on a 96 well flat bottom plate at a cells density of 30,000 cells/50 μL per well. After culturing overnight, various concentrations of test substance were dissolved in IMDM containing 10% bovine fetal serum and added to each well by 50 μL. After culture for 3 days, a Cell counting kit-8 reagent (DOJINDO LABORATORIES) was added to each well by 10 μL, and reacted in an incubator at 37° C., 5% CO2 for 2-3 hr. After the reaction, the absorbance of each well at 450 nm was measured by a microtiter plate reader. The concentration of a test substance necessary for inhibiting the growth by 50% (IC50 value) was calculated using a cell proliferation rate with addition of the test substance at each concentration and according to the nonlinear regression analysis using GraphPad Prism [Sigmoidal dose response (variable slope)].

[7] = target: T4, VEGFR2 intracellular domain protein (Homo sapiens, UniProt P35968); assay: Vascular endothelial growth factor receptor 2 (VEGFR2) kinase inhibitory activity (AlphaScreen); format: biochemical
T4 construct: made in house; host or cells: SF-21 insect cells, recombinant baculovirus BAC-VEGFR2
Procedure: Human vascular endothelial growth factor receptor 2 (hereinafter to be referred to as VEGFR2) gene was cloned by PCR using cDNA Libraries Human Placenta (Clontech) as a template. […] The primer base sequence is shown below.
SF-21 cells were sown at 1×10^6 cells/mL to Sf-900II SFM medium (1 L, Invitrogen) containing 10% fetal bovine serum (trace), 50 mg/L Gentamicin (Invitrogen) and 0.1% Pluronic F-68 (Invitrogen), and shaking culture was performed using a 2 L volume Erlenmeyer flask at 27° C., 100 rpm. After culturing for 24 hrs, recombinant baculovirus BAC-VEGFR2 (13.4 mL) was added to the mixture, and the mixture was further cultured for 3 days. The culture medium was centrifuged at 2,000 rpm for 5 min to give virus-infected cells. The infected cells were washed with a phosphate buffered saline (Invitrogen), centrifuged under the same conditions, and the cells were preserved at −80° C. The cryopreserved cells were thawed in ice, suspended in buffer A (50 mM Tris buffer (30 mL, pH 7.4) containing 20% glycerol, 0.15 M NaCl) supplemented with Complete Protease Inhibitor (Boehringer), and ruptured 3 times with a Polytron homogenizer (Kinematica) at 20,000 rpm for 30 sec. The ruptured medium was clarified by centrifugation at 40,000 rpm for 30 min and filtered with a 0.45 μm filter. The filtrate was passed through a column packed with Anti-FLAG M2 Affinity Gel (4 mL, Sigma) at a flow rate of about 0.5 mL/min. The column was washed with buffer A, and eluted with buffer A containing 100 μg/mL of FLAG peptide. The eluate was concentrated with Vivaspin 20 (Vivascience) having a molecular weight cut off of 30K. The buffer of this concentrate was exchanged using NAP™ 25 column (Amersham Bioscience) equilibrated with buffer A. The fractions containing intracellular domain protein of VEGFR2 were collected, glycerol was added to the final concentration of 50% and cryopreserved at −80° C.
as §2, with “50 ng/mL” for “2.5 ng/ml”, “VEGFR2” for “c-Met”, “protein” for “protein (Millipore)”
as §1

[8] = 1 μM test compound, read-out: inhibitory rate (%) at 1 μM
[9] = 1 μM test substance, read-out: inhibitory rate (%) at 1 μM

T3 sequence (P08581 956-1390 limits assumed): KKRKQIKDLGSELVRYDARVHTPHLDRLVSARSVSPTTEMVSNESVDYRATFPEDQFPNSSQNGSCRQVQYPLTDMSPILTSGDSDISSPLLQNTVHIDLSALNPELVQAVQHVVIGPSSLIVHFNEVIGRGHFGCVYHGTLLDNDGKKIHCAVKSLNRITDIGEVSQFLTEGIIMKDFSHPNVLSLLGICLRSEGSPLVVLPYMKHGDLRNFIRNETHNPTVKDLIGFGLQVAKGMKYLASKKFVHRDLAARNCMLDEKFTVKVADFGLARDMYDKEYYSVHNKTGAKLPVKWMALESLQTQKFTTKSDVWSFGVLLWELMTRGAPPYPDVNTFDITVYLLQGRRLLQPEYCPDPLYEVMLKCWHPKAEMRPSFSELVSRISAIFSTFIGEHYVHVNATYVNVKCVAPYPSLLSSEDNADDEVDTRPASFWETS
T4 sequence (P35968 786-1356 limits assumed): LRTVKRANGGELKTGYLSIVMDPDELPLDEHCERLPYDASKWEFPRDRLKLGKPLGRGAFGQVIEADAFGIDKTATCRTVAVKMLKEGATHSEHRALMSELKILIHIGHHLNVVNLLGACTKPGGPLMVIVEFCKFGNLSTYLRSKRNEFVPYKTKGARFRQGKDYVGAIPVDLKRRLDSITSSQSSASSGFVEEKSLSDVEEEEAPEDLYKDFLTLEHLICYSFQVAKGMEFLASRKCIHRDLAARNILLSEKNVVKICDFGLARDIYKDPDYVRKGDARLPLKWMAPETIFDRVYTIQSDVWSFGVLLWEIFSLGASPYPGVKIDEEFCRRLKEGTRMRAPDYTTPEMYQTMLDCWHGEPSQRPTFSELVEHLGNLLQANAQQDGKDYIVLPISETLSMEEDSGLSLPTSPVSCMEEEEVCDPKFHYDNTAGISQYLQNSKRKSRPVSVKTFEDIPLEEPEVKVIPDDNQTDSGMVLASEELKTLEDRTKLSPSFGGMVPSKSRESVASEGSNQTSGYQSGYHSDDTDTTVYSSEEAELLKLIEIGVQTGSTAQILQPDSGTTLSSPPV
T2 sequence (Q02763 770-1124 limits assumed): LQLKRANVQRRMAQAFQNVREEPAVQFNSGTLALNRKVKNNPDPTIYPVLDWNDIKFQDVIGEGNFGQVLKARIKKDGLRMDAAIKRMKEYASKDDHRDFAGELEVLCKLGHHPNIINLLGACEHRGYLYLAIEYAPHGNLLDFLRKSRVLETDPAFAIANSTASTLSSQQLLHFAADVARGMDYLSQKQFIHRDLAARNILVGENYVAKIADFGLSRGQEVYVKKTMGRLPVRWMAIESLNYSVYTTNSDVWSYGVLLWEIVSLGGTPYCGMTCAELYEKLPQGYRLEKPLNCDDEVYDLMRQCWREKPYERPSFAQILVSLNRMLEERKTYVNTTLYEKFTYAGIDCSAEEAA

IC50 [1] [µM] | IC50 [2] [µM] | IC50 [3] [µM] | inhibition at 1 µM [3, 8] [%] | IC50 ([4]; read-out: IC50 value) [µM] | IC50 [6] [µM] | IC50 [7] [µM] | inhibition at 1 µM [7, 8] [%] | SMILES | inhibition at 1 µM [4, 9] [%] | inhibition at 1 µM [5, 9] [%] | IC50 [5] [µM] | inhibition at 1 µM [6, 9] [%]
≤ 1 | ≤ 1 | – | – | – | – | – | – | Cc1ccc(C(=O)Nc2ccc(Oc3ccc4nc(NC(=O)C5CC5)cn4c3)c(F)c2)c(=O)n1-c1ccc(F)cc1 [Example 90, N-[4-({2-[(cyclopropylcarbonyl)amino]imidazo[1,2-a]pyridin-6-yl}oxy)-3-fluorophenyl]-1-(4-fluorophenyl)-6-methyl-2-oxo-1,2-dihydropyridine-3-carboxamide acetate] | – | – | – | –
– | – | ≤ 1 | ≥ 80 | ≤ 1 | ≤ 1 | ≤ 1 | ≥ 70 | O=C(Nc1nc2ccc(Oc3ccc(NC(=O)C4(C(=O)Nc5ccccc5)CC4)cc3F)nc2s1)C1CC1 [Example 20, N-[4-({2-[(cyclopropylcarbonyl)amino][1,3]thiazolo[5,4-b]pyridin-5-yl}oxy)-3-fluorophenyl]-N′-phenylcyclopropane-1,1-dicarboxamide] | ≥ 80 | ≥ 40 | ≤ 2 | ≥ 90
